Measurements reported in US20130123355A1, “Fatty acids and metal ions compositions and uses thereof” (priority 2011, published 2013).

Legend:
[1] = test system: Patients presenting early symptoms of stroke; test: Stroke Rehabilitation Assessment of Movement (STREAM); type: in vivo, human; conditions: with standard of care
Protocol: Patients presenting early symptoms of stroke, in addition to being provided standard of care for stroke, are prescribed Mg-DHA or Mg Citrate capsules formulated to provide a daily dose of 150 mg of elemental magnesium or DHA capsules for two weeks when recovery from stroke is assessed.
Patients presenting early symptoms of stroke, in addition to being provided standard of care for stroke, are prescribed Mg-DHA-LysoPC or Mg Citrate capsules prepared and formulated to provide 150 mg of elemental magnesium, or DHA-LysoPC capsules for two weeks when recovery is assessed.
Patients presenting early symptoms of stroke, in addition to being provided standard of care for stroke, are prescribed Mg-EPA or Mg Citrate capsules formulated to provide 150 mg of elemental magnesium, or EPA capsules for two weeks when recovery from stroke is assessed.
Patients presenting early symptoms of stroke, in addition to being provided standard of care for stroke, are prescribed either Zn-DHA or zinc gluconate capsules formulated to provide a daily dosage of 30 mg of elemental Zn, or DHA capsules for two weeks when recovery from stroke is assessed.
Patients presenting early symptoms of stroke, in addition to being provided standard of care for stroke, are prescribed either Zn-DHA-LysoPC or zinc gluconate capsules that provide a daily dosage of 30 mg of elemental Zn, or DHA-LysoPC capsules for two weeks when recovery is assessed.
Patients presenting early symptoms of stroke, in addition to being provided standard of care for stroke, are prescribed either Zn-EPA or zinc gluconate capsules formulated to provide a daily dosage of 30 mg of elemental Zn, or EPA capsules for two weeks when recovery from stroke is assessed.

rats = test: tail flick test; type: in vivo; conditions: diet
Protocol: On Zn-EPA or zinc gluconate supplemented diet, rats consume about 1 mg/kg body weight/day of elemental zinc, on a feeding schedule so as to maintain 85% of its free-feeding weight.

[2] = test system: Patients presenting symptoms of depression; test: Hamilton Depression Rating scale and Beck Depression Inventory in depression; type: in vivo, human; conditions: with standard of care
Protocol: Patients presenting symptoms of depression, in addition to being provided standard of care for depression, are prescribed Mg-DHA or Mg Citrate capsules formulated to provide 150 mg of elemental magnesium, or DHA capsules for two weeks when recovery from depression is assessed.
Patients presenting symptoms of depression, in addition to being provided standard of care for depression, are prescribed Mg-DHA-LysoPC or Mg Citrate capsules formulated to provide 150 mg of elemental magnesium, or DHA-LysoPC capsules for two weeks when recovery from depression is assessed.
Patients presenting symptoms of depression, in addition to being provided standard of care for depression, are prescribed Mg-EPA or Mg Citrate capsules formulated to provide 150 mg of elemental magnesium, or EPA capsules for two weeks when recovery from depression is assessed.
Patients presenting symptoms of depression, in addition to being provided standard of care for depression, are prescribed Zn-DHA or zinc gluconate capsules formulated to provide a daily dosage of 30 mg of elemental zinc, or DHA capsules for two weeks when recovery from depression is assessed.
Patients presenting symptoms of depression, in addition to being provided standard of care for depression, are prescribed Zn-DHA-LysoPC or zinc gluconate capsules formulated to provide a daily dosage of 30 mg of elemental zinc, or DHA-LysoPC capsules for two weeks when recovery from depression is assessed.
Patients presenting symptoms of depression, in addition to being provided standard of care for depression, are prescribed Zn-EPA or zinc gluconate capsules that provide a daily dosage of 30 mg of elemental Zn, or EPA capsules for two weeks when recovery from depression is assessed.

[3] = test system: Patients presenting symptoms of migraine; test: migraine pain relief on visual analog scale (VAS); type: in vivo, human; conditions: reviewed after 4 hours
Protocol: Patients presenting symptoms of migraine are prescribed Zn-DHA or zinc gluconate capsules formulated to provide a daily dosage of 30 mg of elemental zinc. The symptoms of migraine are reviewed after 4 hours. […] For each group of patients, Excedrin is prescribed as rescue medicine.
Patients presenting symptoms of migraine are prescribed Zn-DHA-LysoPC or zinc gluconate formulated to provide a daily dosage of 30 mg of elemental zinc. The symptoms of migraine are reviewed after 4 hours. […] For each group of patients, Excedrin is prescribed as rescue medicine.
Patients presenting symptoms of migraine are prescribed Zn-EPA capsules formulated to provide a daily dosage of 30 mg of elemental Zn. The symptoms of migraine are reviewed after 4 hours. […] For each group of patients, Excedrin is prescribed as rescue medicine.

[4] = 150 mg elemental magnesium daily for two weeks
[5] = about 50 mg/Kg/day elemental Mg, days 0, 7, 14, 21, compared with Mg Citrate or the fatty acid alone
[6] = 150 mg elemental magnesium for two weeks
[7] = 150 mg elemental magnesium daily, compared with the fatty acid alone or Mg Citrate
[8] = 30 mg elemental Zn daily for two weeks, compared with the fatty acid alone or zinc gluconate
[9] = about 1 mg/kg body weight/day elemental zinc, days 0, 7, 14, 21, compared with zinc gluconate or the fatty acid alone
[10] = 30 mg elemental zinc daily for two weeks, compared with the fatty acid alone or zinc gluconate
[11] = 30 mg elemental zinc daily, compared with the fatty acid alone or zinc gluconate

Row | Compound | STREAM scores, recovery from stroke [1, 4] | latency of tail flick reflex (rats; [5]) | Hamilton Depression Rating scale and Beck Depression Inventory scores [2, 6] | pain relief on a visual analog scale (VAS) [3, 7] | STREAM scores, recovery from stroke [1, 8] | latency of tail flick reflex (rats; [9]) | Hamilton Depression Rating scale and Beck Depression Inventory scores [2, 10] | pain relief on a visual analog scale (VAS) [3, 11]
1 | CC/C=C\C/C=C\C/C=C\C/C=C\C/C=C\C/C=C\CCC(=O)[O-].CC/C=C\C/C=C\C/C=C\C/C=C\C/C=C\C/C=C\CCC(=O)[O-].[Mg+2] [Mg-DHA] | statistically significant improvement | Statistically significant increased latency | statistically significant improvement | significant pain relief |  |  |  | 
2 | CC/C=C\C/C=C\C/C=C\C/C=C\C/C=C\CCCC(=O)[O-].CC/C=C\C/C=C\C/C=C\C/C=C\C/C=C\CCCC(=O)[O-].[Mg+2] [Mg-EPA] | statistically significant improvement | Statistically significant increased latency | statistically significant improvement | significant pain relief |  |  |  | 
3 | CC/C=C\C/C=C\C/C=C\C/C=C\C/C=C\C/C=C\CCC(=O)[O-].CC/C=C\C/C=C\C/C=C\C/C=C\C/C=C\C/C=C\CCC(=O)[O-].[Zn+2] [Zn-DHA] |  |  |  |  | statistically significant improvement | Statistically significant increased latency | statistically significant improvement | significant pain relief
4 | CC/C=C\C/C=C\C/C=C\C/C=C\C/C=C\CCCC(=O)[O-].CC/C=C\C/C=C\C/C=C\C/C=C\C/C=C\CCCC(=O)[O-].[Zn+2] [Zn-EPA] |  |  |  |  | statistically significant improvement | Statistically significant increased latency | statistically significant improvement | significant pain relief
